Experimental data from patent US7858615B2, “(S)-(-)-1-(4-fluoroisoquinolin-5-Yl)Sulfonyl-2-methyl-1,4-homopiperazine hydrochloride dihydrate” (Kowa Co., Ltd., priority 2004, dated 2010).
Entries after “also recorded” stand apart in the source; their conditions may differ. Counter-ions that a name gives are not always drawn.

Legend:
[1] = Test Example 2 (Hygroscopicity): weight increase in open weighing bottle at 25° C. and controlled RH; type: physicochemical; conditions: for hygroscopic stability in words: RH 33% or 92%, time-dependent; for water content reached with elapsed time: eventual value, hydrochloride
Description: Each of the dihydrate of the present invention produced in Example 1 and (S)-(−)-1-(4-fluoroisoquinolin-5-yl)sulfonyl-2-methyl-1,4-homopiperazine hydrochloride anhydrate (each 100 mg) was placed in a weighing bottle. The bottle was allowed to stand in a container maintained at 25° C. and an RH of 33% or 92%, with the container being opened. The weighing bottle was time-dependently weighed, to thereby determine increase in weight for evaluation of hygroscopicity. FIGS. 6 and 7 show the results.

[2] = Test Example 1 (Thermal Stability): storage in sealed containers in thermostats; type: physicochemical; conditions: for Percent remain (%): sealed container
Description: The dihydrate of the present invention produced in Example 1 was placed in sealable containers such that each container included 1 g of the dihydrate. After sealing, these containers were maintained in thermostats at 40, 60, and 80° C. for 7 and 14 days, so as to evaluate thermal stability.

C[C@H]1CNCCCN1S(=O)(=O)c1cccc2cncc(F)c12.Cl [anhydrous crystals, (S)-(−)-1-(4-fluoroisoquinolin-5-yl)sulfonyl-2-methyl-1,4-homopiperazine hydrochloride]
hygroscopic stability in words [1]: poor hygroscopic stability
water content reached with elapsed time ([1]; relative humidity 92%): about 40%
water content reached with elapsed time ([1]; relative humidity 92%, listed as anhydrate): 40%
water content after seven days ([1]; relative humidity 92%, seven days): 40%

C[C@H]1CNCCCN1S(=O)(=O)c1cccc2cncc(F)c12 [dihydrate, (S)-(−)-1-(4-fluoroisoquinolin-5-yl)sulfonyl-2-methyl-1,4-homopiperazine hydrochloride dihydrate]
thermal stability in words ([2]; after storage at 40° C., 60° C., or 80° C. for two weeks): high thermal stability
Percent remain (%) ([2]; storage temp. 40° C., storage period 7 days): 100.0%
Percent remain (%) ([2]; storage temp. 40° C., storage period 14 days): 99.6%
Percent remain (%) ([2]; storage temp. 60° C., storage period 7 days): 99.6%
Percent remain (%) ([2]; storage temp. 60° C., storage period 14 days): 99.8%
Percent remain (%) ([2]; storage temp. 80° C., storage period 7 days): 99.8%
Percent remain (%) ([2]; storage temp. 80° C., storage period 14 days): 99.8%
thermal stability (decomposition or undesired reaction) in words ([2]; stored at 80° C. for two weeks): does not decompose
hygroscopic stability in words [1]: excellent hygroscopic stability
change of water content (hygroscopic behavior) in words ([1]; relative humidity 92% RH, 14 days, hydrochloride dihydrate): constant; also recorded: no change in its water content
